{
  "source": "patent US11638719B2",
  "about": "“Product for obesity treatment” (YEDITEPE UNIVERSITESI, priority 2017, dated 2023)",
  "assay_type_in_all_cases": "cell-based",
  "key": {"[1]": {"tested_on": "PPARγ, FABP4 and adiponectin gene expression in human adipose stem cells", "test": "RT-PCR analysis of adipogenesis-promoting gene expression after adipocyte differentiation", "conditions": "F68 0.05%, NaB 20 μg/ml, alone or combined; 10 days adipogenic differentiation; compared to positive control; normalized to GAPDH", "protocol": "(§1) The cells were seeded into 6-well culture plates at 100,000 cells/well in an adipogenic differentiation medium. Content of the medium was as follows. 10% (v/v) FBS, 1 uM dexamethasone, 100 uM indomethacin (Sigma, USA), 500 uM IBMX (Calbiochem Merck Millipore, Germany) and 0.01 mg/mL insulin (Gibco, UK). 5 different groups were prepared; only F68, only NaB, F68 and NaB combination, PC and NC. Adipogenic differentiation was applied for 10 days by changing the medium every other day. While only DMEM, 10% (v/v) FBS and 1% (v/v) PSA were applied to the negative control group, the positive control group was cultured with adipogenic differentiation medium.\nFollowing differentiation, RNA isolation was carried out using High Pure RNA Isolation Kit (Roche, Germany) in accordance with the manufacturer's instructions. After performance of cDNA synthesis (High Fidelity cDNA synthesis kit, Roche, Germany) from isolated RNA samples, RT-PCR was performed in three replicates using iCycler RT-PCR detection system (Bio-Rad, Hercules, Calif.). Synthesis levels were normalized to GAPDH.\nFor each sample the fold changes in the expression levels were determined using the method 2 (-Delta Delta C (t))."}, "[2]": {"tested_on": "human adipose stem cells (hASCs)", "test": "'Oil Red O' staining of fat accumulation after adipocyte differentiation", "conditions": "F68 0.05%, NaB 20 μg/ml, alone or combined; 10 days adipogenic differentiation; compared to positive control", "protocol": "as §1\nThe ‘Oil Red O’ solution was prepared by dissolving 0.5 grams of ‘Oil Red O’ (Sigma, USA) in 100 ml of isopropanol. After being fixed with 2% paraformaldehyde (weight/volume) for 30 minutes, the cells were incubated in ‘Oil Red O’ solution (diluted in PBS at 6:4) for 1 hour. The cells were observed under light microscope.\nStatistical analysis of the results was performed with the unpaired t-test and the graphs were drawn using GraphPad Prism 5 software Statistical significance was accepted as p<0.05. In addition, a graphical representation of the results obtained from immunocytochemistry and ‘Oil red O’ staining was obtained using the Adobe Creative Suite 6 program"}, "[3]": {"tested_on": "PPARγ, FABP4 and adiponectin protein expression in human adipose stem cells", "test": "Immunocytochemical analysis of PPARγ, FABP4 and adiponectin proteins after adipocyte differentiation", "conditions": "F68 0.05%, NaB 20 μg/ml, alone or combined at the same ratios; compared to positive control", "protocol": "as §1\nHuman adipose stem cells were seeded into 48-well plates at 8,000 cells/well. Following the differentiation experiment, the cells were fixed in 2% (w/v) paraformaldehyde at 4° C. for 30 minutes and then blocked with 2% (v/v) goat serum (Sigma, USA) for 20 minutes. The cells incubated at 4° C. overnight with PPAR-γ (ab8934, Abcam, UK, 1: 100), FABP4 (SC-30088, Santa Cruz Biotechnology, Tex., USA, 1:100) and adiponectin (ab22554, Abcam, UK, 1:50) primary antibodies were then incubated with secondary antibodies (goat anti-rabbit IgG Alexa Fluor 488, goat anti-mouse IgGAlexaFluor 488, 1:1000) at 4° C. for 2 hours. […] Immunocytochemical analysis results were observed under fluorescence microscope (NiconEclipse TE200). […]"}, "[4]": {"tested_on": "human adipose stem cells (hASCs)", "test": "Cytotoxicity analysis, cell viability by MTS assay", "conditions": "NaB 20 μg/ml; for cell viability: MTS", "protocol": "Cytotoxicity of Pluronic® F68 and NaB were dissolved and tested at 7 different concentrations in DMEM ([…], 0.7%, 0.5%, 0.3%, 0.1%, 0.05%, 0.01% (w/v) for F68 and 5, 10, 20, 50, 100, 200 and 300 ug/ml for NaB).\nHASCs were seeded into 96-well culture plates (Corning Plasticware, Corning, N.Y., cat. no. CLS3360) at 5,000 cells/well. The next day, the cells were treated with F68 and NaB solutions that were prepared at different concentrations. In accordance with the manufacturer's instructions, cell viability was measured by the MTS assay (Promega, Southampton, UK CellTiter 96 AqueousOne solution). After 24, 48 and 72 hours of incubation, 10 ul of MTS reagent and 100 ul of DMEM medium were applied to the cells and then, after incubation at 37° C. for 2 hours, their absorbances at […] were measured with the ELISA plate reader (BioTek Instruments, Inc., Vt., USA)."}},
  "data": [
    {"substance": "sodium pentaborate pentahydrate [NaB]", "values": [
      {"measurement": "expression levels of PPARγ, FABP4 and adiponectin genes", "setting": "[1]", "value": "increased significantly"},
      {"measurement": "amount of fat accumulation in the cells", "setting": "[2]", "value": "increased the amount of fat accumulation"},
      {"measurement": "PPARγ, FABP4 and adiponectin protein expression levels", "setting": "[3]", "value": "higher than that of positive control"},
      {"measurement": "cell viability", "setting": "[4]; end of day 1, hASCs", "value": 101, "unit": "%"},
      {"measurement": "cell viability", "setting": "[4]; end of day 2, hASCs", "value": 106, "unit": "%"},
      {"measurement": "cell viability", "setting": "[4]; end of day 3, hASCs", "value": 109, "unit": "%"},
      {"measurement": "cytotoxicity of the dosage used", "setting": "[4]; hASCs", "value": "non-cytotoxic"}
    ]}
  ]
}
